According to patent US20120264735A1 (priority 2009, published 2012):

molecular target: T1, c-Met kinase (recombinant c-Met) (Homo sapiens, UniProt P08581); test: In vitro kinase assay I (homogeneous time-resolved fluorescence tyrosine kinase assay); type: biochemical
T1 construct: 0.27 nM recombinant c-Met
How it was run: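 Biotinylated peptide (0.5 μM) phosphorylated by 0.2 nM recombinant c-Met with 50 μM MgATP, 60 min at room temperature, pH 7.4, 5% DMSO. EDTA stop; HTRF read with Eu-anti-phosphotyrosine antibody and streptavidin-APC. IC50 from 4-parameter logistic fit.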

T1 sequence (P08581 25-1390): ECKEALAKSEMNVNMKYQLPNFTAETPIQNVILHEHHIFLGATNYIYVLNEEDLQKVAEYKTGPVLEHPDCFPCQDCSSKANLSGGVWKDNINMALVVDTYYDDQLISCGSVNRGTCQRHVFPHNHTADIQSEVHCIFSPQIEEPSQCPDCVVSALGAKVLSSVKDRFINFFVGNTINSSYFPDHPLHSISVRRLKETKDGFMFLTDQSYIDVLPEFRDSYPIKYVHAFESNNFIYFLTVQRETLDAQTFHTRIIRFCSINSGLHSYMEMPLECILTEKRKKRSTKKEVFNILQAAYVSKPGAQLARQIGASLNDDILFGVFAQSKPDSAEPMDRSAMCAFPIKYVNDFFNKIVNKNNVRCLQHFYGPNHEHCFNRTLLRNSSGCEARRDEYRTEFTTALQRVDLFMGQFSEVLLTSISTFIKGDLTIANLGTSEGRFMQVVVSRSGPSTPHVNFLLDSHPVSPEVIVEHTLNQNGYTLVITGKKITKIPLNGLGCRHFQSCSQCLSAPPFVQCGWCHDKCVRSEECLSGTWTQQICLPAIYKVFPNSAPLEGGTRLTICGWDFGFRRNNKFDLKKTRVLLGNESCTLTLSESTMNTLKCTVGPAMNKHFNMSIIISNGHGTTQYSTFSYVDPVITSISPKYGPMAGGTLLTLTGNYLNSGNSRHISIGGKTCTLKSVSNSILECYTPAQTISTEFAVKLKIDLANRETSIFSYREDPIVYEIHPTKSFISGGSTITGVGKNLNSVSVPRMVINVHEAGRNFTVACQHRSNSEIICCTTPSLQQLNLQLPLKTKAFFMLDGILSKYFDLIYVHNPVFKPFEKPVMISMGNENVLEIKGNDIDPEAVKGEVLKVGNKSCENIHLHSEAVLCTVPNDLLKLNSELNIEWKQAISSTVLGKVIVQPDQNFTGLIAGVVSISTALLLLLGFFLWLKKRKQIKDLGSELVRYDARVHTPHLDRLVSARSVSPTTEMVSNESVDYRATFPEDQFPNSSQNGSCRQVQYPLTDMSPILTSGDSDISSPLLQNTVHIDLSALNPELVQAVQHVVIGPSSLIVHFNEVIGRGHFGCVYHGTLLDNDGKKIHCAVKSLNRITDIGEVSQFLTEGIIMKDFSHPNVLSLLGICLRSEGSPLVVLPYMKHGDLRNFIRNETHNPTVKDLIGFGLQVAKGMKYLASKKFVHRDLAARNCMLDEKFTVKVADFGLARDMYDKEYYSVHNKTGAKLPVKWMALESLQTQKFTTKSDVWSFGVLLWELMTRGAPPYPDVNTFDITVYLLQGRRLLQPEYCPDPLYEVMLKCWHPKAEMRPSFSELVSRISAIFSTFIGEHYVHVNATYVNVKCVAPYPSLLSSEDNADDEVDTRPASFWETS

| IC50 [nM] | Compound |
| --- | --- |
| < 100 | Cn1cc(-n2ccc(=O)c(Cc3cccc(NC(=O)OCC4(F)CCNCC4)c3)n2)cn1 [Example 620, (4-fluoropiperidin-4-yl)methyl (3-{[1-(1-methyl-1H-pyrazol-4-yl)-4-oxo-1,4-dihydropyridazin-3-yl]methyl}phenyl)carbamate] |
| < 100 | CCn1cc(-n2ccc(=O)c(Cc3cccc(-c4ncc(OCC5CCN(C)CC5)cn4)c3)n2)cn1 [Example 172, 1-(1-ethyl-1H-pyrazol-4-yl)-3-(3-{5-[(1-methylpiperidin-4-yl)methoxy]pyrimidin-2-yl}benzyl)pyridazin-4(1H)-one] |
| < 100 | O=C(Nc1cccc(Cc2nn(-c3ccc(F)c(F)c3)ccc2=O)c1)OCC1CCOCC1 [Example 527, tetrahydro-2H-pyran-4-ylmethyl (3-{[1-(3,4-difluorophenyl)-4-oxo-1,4-dihydropyridazin-3-yl]methyl}phenyl)carbamate] |
| < 100 | CN1CCN(CCCNC(=O)c2cnc(-c3cccc(Cc4nn(-c5cnn(C)c5)ccc4=O)c3)nc2)CC1 [Example 479, N-[3-(4-methyl-piperazin-1-yl)propyl]-2-(3-{[1-(1-methyl-1H-pyrazol-4-yl)-4-oxo-1,4-dihydro-pyridazin-3-yl]methyl}phenyl)pyrimidine-5-carboxamide] |
| 1000 to 3000 | Cc1noc(-c2cccc(Cc3nn(-c4cnn(C)c4)ccc3=O)c2)n1 [Example 41, 3-[3-(3-methyl-1,2,4-oxadiazol-5-yl)benzyl]-1-(1-methyl-1H-pyrazol-4-yl)pyridazin-4(1H)-one] |
| < 100 | O=c1ccn(-c2ccc(F)c(F)c2)nc1Cc1cccc(-c2ncc(OCC3CCOC3)cn2)c1 (single isomer, unassigned) [Example 352, 1-(3,4-difluorophenyl)-3-(3-{5-[(3S or R)-tetrahydrofuran-3-ylmethoxy]pyrimidin-2-yl}benzyl)pyridazin-4(1H)-one] |
| 100 to 1000 | Cn1cc(-n2ccc(=O)c(Cc3cccc(NC(=O)OC4CCNCC4)c3)n2)cn1 [Example 618, piperidin-4-yl (3-{[1-(1-methyl-1H-pyrazol-4-yl)-4-oxo-1,4-dihydropyridazin-3-yl]methyl}phenyl)carbamate] |
| 100 to 1000 | O=c1ccn(-c2ccc(F)c(F)c2)nc1Cc1cccc(-c2ncc(O)cn2)c1 [Example 188, 1-(3,4-Difluorophenyl)-3-[3-(5-hydroxypyrimidin-2-yl)benzyl]pyridazin-4(1H)-one] |
| < 100 | CCn1cc(-n2ccc(=O)c(Cc3cccc(-c4ncc(OCCO)cn4)c3)n2)cn1 [Example 307, 1-(1-ethyl-1H-pyrazol-4-yl)-3-{3-[5-(2-hydroxyethoxy)pyrimidin-2-yl]benzyl}pyridazin-4(1H)-one] |
| < 100 | CC1CC1COC(=O)Nc1cccc(Cc2nn(-c3cnn(C)c3)ccc2=O)c1 (mixture of isomers) [Example 574, (2-methylcyclopropyl)methyl (3-{[1-(1-methyl-1H-pyrazol-4-yl)-4-oxo-1,4-dihydropyridazin-3-yl]methyl}phenyl)carbamate] |
| 100 to 1000 | O=c1ccn(-c2cn[nH]c2)nc1Cc1cccc(-c2ncc(O)cn2)c1 [Example 194, 3-[3-(5-Hydroxypyrimidin-2-yl)benzyl]-1-(1H-pyrazol-4-yl)pyridazin-4(1H)-one] |
| 1000 to 3000 | Cn1cc(-n2ccc(=O)c(Cc3ccc4nccn4c3)n2)cn1 [Example 46, 3-(imidazo[1,2-a]pyridin-6-ylmethyl)-1-(1-methyl-1H-pyrazol-4-yl)pyridazin-4(1H)-one] |
| < 100 | Cn1cc(-n2ccc(=O)c(Cc3cccc(-c4ncc(C5CC5)cn4)c3)n2)cn1 [Example 393, 3-[3-(5-cyclopropyl-pyrimidin-2-yl)benzyl]-1-(1-methyl-1H-pyrazol-4-yl)pyridazin-4(1H)-one] |
| 1000 to 3000 | CC(c1cccc(-c2ncn(C)n2)c1)c1nn(-c2cnn(C)c2)ccc1=O (single isomer, unassigned) [Example 682, 1-(1-methyl-1H-pyrazol-4-yl)-3-{(1S or R)-1-[3-(1-methyl-1H-1,2,4-triazol-3-yl)phenyl]ethyl} pyridazin-4(1H)-one] |
| < 100 | Cc1cnc(-c2cccc(Cc3nn(-c4cnn(C)c4)ccc3=O)c2)s1 [Example 19, 1-(1-methyl-1H-pyrazol-4-yl)-3-[3-(5-methyl-1,3-thiazol-2-yl)benzyl]pyridazin-4(1H)-one] |
| < 100 | CC(C)CNC(=O)Nc1cccc(Cc2nn(-c3cnn(C)c3)ccc2=O)c1 [Example 491, 1-(2-methylpropyl)-3-(3-{[1-(1-methyl-1H-pyrazol-4-yl)-4-oxo-1,4-dihydropyridazin-3-yl]methyl}phenyl)urea] |
| < 100 | O=C(Nc1cccc(Cc2nn(-c3cc(F)cc(F)c3)ccc2=O)c1)OCCN1CCS(=O)(=O)CC1 [Example 517, 2-(1,1-dioxidothio-morpholin-4-yl)ethyl (3-{[1-(3,5-difluorophenyl)-4-oxo-1,4-dihydropyridazin-3-yl]methyl}phenyl)carbamate] |
| < 100 | CCC(C)c1cnc(-c2cccc(Cc3nn(-c4cnn(C)c4)ccc3=O)c2)nc1 (racemic) [Example 408, rac-3-{3-[5-(Butan-2-yl)pyrimidin-2-yl]benzyl}-1-(1-methyl-1H-pyrazol-4-yl)pyridazin-4(1-1)-one] |

| IC50 [nM] | Compound |
| --- | --- |
| < 100 | CN1CCN(CCCOC(=O)Nc2cccc(Cc3nn(-c4cc(F)cc(F)c4)ccc3=O)c2)CC1 [Example 518] |
| < 100 | CCCn1cnc(-c2cccc(C(C)c3nn(-c4cnn(C)c4)ccc3=O)c2)n1 (single isomer, unassigned) [Example 685, 1-(1-methyl-1H-pyrazol-4-yl)-3-{(1R or S)-1-[3-(1-propyl-1H-1,2,4-triazol-3-yl)phenyl]ethyl} pyridazin-4(1H)-one] |
| < 100 | CC(C)(O)COc1cnc(-c2cccc(Cc3nn(-c4ccc(C#N)cc4)ccc3=O)c2)nc1 [Example 372, 4-[3-{3-[5-(2-hydroxy-2-methylpropoxy)pyrimidin-2-yl]benzyl}-4-oxopyridazin-1(4H)-yl]benzonitrile] |
| < 100 | C[C@@H](O)[C@@H](C)Oc1cnc(-c2cccc(Cc3nn(-c4cnn(C)c4)ccc3=O)c2)nc1 (single isomer, unassigned) [Example 374] |
| < 100 | Cn1cc(-n2ccc(=O)c(Cc3cccc(-c4ncc(-c5ccn(C)n5)cn4)c3)n2)cn1 [Example 421, 1-(1-methyl-1H-pyrazol-4-yl)-3-{3-[5-(1-melhyl-1H-pyrazol-3-yl)pyrimidin-2-yl]benzyl}pyridazin-4(1H)-one] |
| < 100 | Cn1cc(-n2ccc(=O)c(Cc3cccc(-c4ncc(OCCN5CCOCC5)cn4)c3)n2)cn1 [Example 263, 1-(1-methyl-1H-pyrazol-4-yl)-3-{3-[5-(2-morpholin-4-ylethoxy)pyrimidin-2-yl]benzyl}pyridazin-4(1H)-one] |
| < 100 | COCc1cnc(-c2cccc(C(C)c3nn(-c4cnn(C)c4)ccc3=O)c2)nc1 (single isomer, unassigned) [Example 220, 3-((1R or S)-1-{3-[5-(methoxymethyl)pyrimidin-2-yl]phenyl}ethyl)-1-(1-methyl-1H-pyrazol-4-yl)pyridazin-4(1H)-one] |
| < 100 | O=C1CN(CCOC(=O)Nc2cccc(Cc3nn(-c4cc(F)cc(F)c4)ccc3=O)c2)CCN1 [Example 604, 2-(3-oxopiperazin-1-yl)ethyl (3-{[1-(3,5-difluorophenyl)-4-oxo-1,4-dihydropyridazin-3-yl]methyl}phenyl)carbamate] |
| < 100 | CN(C)C/C=C/c1cnc(-c2cccc(Cc3nn(-c4cnn(C)c4)ccc3=O)c2)nc1 [Example 403, 3-(3-{5-[(1E)-3-(dimethylamino)prop-1-en-1-yl]pyrimidin-2-yl}benzyl)-1-(1-methyl-1H-pyrazol-4-yl)pyridazin-4(1H)-one] |
| < 100 | CC(C)COC(=O)Nc1cccc(Cc2nn(-c3ccc(-c4cccnc4)cc3)ccc2=O)c1 [Example 727, 2-Methylpropyl[3-({4-oxo-1-[4-(pyridin-3-yl)phenyl]-1,4-dihydropyridazin-3-yl}methyl)phenyl]carbamate] |
| < 100 | N#Cc1cccc(-n2ccc(=O)c(Cc3cccc(NC(=O)OCC4CCOC4)c3)n2)c1 (racemic) [Example 583, rac-tetrahydrofuran-3-ylmethyl (3-{[1-(3-cyanophenyl)-4-oxo-1,4-dihydropyridazin-3-yl]methyl}phenyl)carbamate] |
| < 100 | O=C(Nc1cccc(Cc2nn(-c3cc(F)c(F)c(F)c3)ccc2=O)c1)OCC1CCOC1 (racemic) [Example 559, rac-tetrahydrofuran-3-ylmethyl (3-{[4-oxo-1-(3,4,5-trifluorophenyl)-1,4-dihydropyridazin-3-yl]methyl}phenyl)carbamate] |
| < 100 | O=c1ccn(-c2ccc(F)c(F)c2)nc1Cc1cccc(-c2ncc(OCC3(O)CCOCC3)cn2)c1 [Example 373, 1-(3,4-difluorophenyl)-3-(3-{5-[(4-hydroxytetrahydro-2H-pyran-4-yl)methoxy]pyrimidin-2-yl}benzyl)pyridazin-4(1H)-one] |
| < 100 | Cn1cc(-n2ccc(=O)c(Cc3cccc(-c4ncc(OCC5(CF)COC5)cn4)c3)n2)cn1 [Example 387, 3-[3-(5-{[3-(Fluoromethyl)oxetan-3-yl]methoxy}pyrimidin-2-yl)benzyl]-1-(1-methyl-1H-pyrazol-4-yl)pyridazin-4(1H)-one] |
| < 100 | O=C(Nc1cccc(Cc2nn(-c3cc(F)cc(F)c3)ccc2=O)c1)OCC1CCOC1 (racemic) [Example 593, rac-tetrahydrofuran-3-ylmethyl-(3-{[1-(3,5-difluorophenyl)-4-oxo-1,4-dihydropyridazin-3-yl]methyl}phenyl)carbamate] |
| < 100 | CC(C)Oc1cnc(-c2cccc(Cc3nn(-c4cnn(C)c4)ccc3=O)c2)nc1 [Example 270, 3-{3-[5-(1-methylethoxy)pyrimidin-2-yl]benzyl}-1-(1-methyl-1H-pyrazol-4-yl)pyridazin-4(1H)-one] |
| < 100 | CC(C)(O)COc1cnc(-c2cccc(Cc3nn(-c4cc(F)cc(F)c4)ccc3=O)c2)nc1 [Example 363, 1-(3,5-difluorophenyl)-3-{3-[5-(2-hydroxy-2-methylpropoxy)pyrimidin-2-yl]benzyl}pyridazin-4(1H)-one] |
